Laboratory results from patent publication US20230364194A1, “GLP-1R/GCGR Dual Target Agonist Polypeptide Derivative for Treatment of Hepatic Fibrosis Associated with Viral Hepatitis” (Shenzhen Turier Biotech. Co., Ltd., priority 2020, published 2023).
Starred links: 1 amine or outer side, 2 acyl side, 3 side chain; linkers in the order of their positions; H or OH if unused. Non-standard residues stand in square brackets, D forms with d. Groups on a side chain read outwards from the residue. Primed or numbered codes have the meaning given here. No end group written: not given here. *: point of attachment. C18 diacid = O=C(O)CCCCCCCCCCCCCCCCC(=O)*; γGlu = O=C(O)[C@H](CCC(=O)[*:2])N[*:1]; Stearoyl = CCCCCCCCCCCCCCCCCC(=O)*; Palmitoyl = CCCCCCCCCCCCCCCC(=O)*; PEG2′ = not defined here; Aib = CC(C)(N)C(=O)O

Assays:
[1] = test system: HBV-infected humanized mouse liver; test: Hepatic fibrosis of HBV-infected humanized mouse (hepatitis virus-infected humanized mouse fibrosis model); format: in vivo; details: 40 ug/Kg, intraperitoneal injection, once every other day for 3 weeks; for Accumulation of collagen fibers (FG/SR staining of liver) / Hepatic fibrosis and inflammation level (FG/SR and H&E staining of liver): compared with control group without administration; for Serum ALT: versus before administration
Procedure: In order to study the effect of the polypeptide compounds of the present invention in hepatic fibrosis associated with viral hepatitis, the polypeptide compounds of the present invention were used for hepatic fibrosis of HBV-infected humanized mouse. […] The specific steps are shown as follows:
Forty newborn NOD-scid IL-2Rγ-/- (NIKO) mice were bred.
These mice were injected with human stem cells for humanization (2 weeks).
Referring to FIG. 10, blood samples were taken to determine the humanization level by flow cytometry. All the mice used in the experiment expressed humanization according to in vivo concentrations of CD4 and CD8.
The mice were divided into 8 groups, fed with high-fat diet and infected with HBV (1 week).
The development of fibrosis in mice was monitored (8-10 weeks).
The polypeptide compounds 2, 5, 11, 15, 20, 23 and 25 were selected, which were stored at -20° C.
The above 40 mice were divided into 8 groups for injection treatment, with grouping and injection administration as follows: blank model control group (CTR), physiological saline, intraperitoneal injection, n=5. • 1) Administration group, polypeptide compound 2, 40 ug/Kg, intraperitoneal injection, n=5. • 2) Administration group, polypeptide compound 5, 40 ug/Kg, intraperitoneal injection, n=5. • 3) Administration group, polypeptide compound 11, 40 ug/Kg, intraperitoneal injection, n=5. • 4) Administration group, polypeptide compound 15, 40 ug/Kg, intraperitoneal injection, n=5. • 5) Administration group, polypeptide compound 20, 40 ug/Kg, intraperitoneal injection, n=5. • 6) Administration group, polypeptide compound 23, 40 ug/Kg, intraperitoneal injection, n=5. • 7) Administration group, polypeptide compound 25, 40 ug/Kg, intraperitoneal injection, n=5.
They were injected once every other day for 3 weeks.
After 3 weeks of administration, the mice were sacrificed to take samples for subsequent bioassay experiments. The serum samples from the mice were used for ALT and human IFNγ tests. Paraffin sections were prepared from partial liver tissues of the mice and stained with hematoxylin-eosin (H&E), […]/Sirius red (FG/SR) and immunohistochemical fluorescence (α-SMA), and statistics were made with Image-pro plus, Graph pad and similar software.
In the HBV induced hepatic fibrosis model, its characteristics are: inflammatory cell infiltration around the central vein area, hydropic degeneration of hepatocytes, and increased accumulation of collagen fibers in the portal area and the hepatic interlobular septum. After 3 weeks of administration, the mice were sacrificed to take samples. Blood was taken from the retrobulbar vein for detection of serological indicators, and liver tissues were taken for pathological analysis.

[2] = test system: Hepatic stellate cell strain LX-2; test: In vitro effect on expression of LX-2 cell activation marker α-SMA (Western Blot, β-actin reference); format: cell-based; details: LX-2 cells, 10.0 uM, 48 hours, negative control = 100%
Excerpt: Hepatic stellate cell strain LX-2 (from China Center for Type Culture Collection, Shanghai) was selected to study and observe the effects of polypeptide compounds 1-25 on the expression level of LX-2 cell activation marker α-smooth muscle actin (α-SMA). The control group was given the same volume of Dulbecco’s modified Eagle medium (DMEM) (from Gibco, United States), and β-actin (from TransGen Biotech) as the endogenous reference, wherein, α-SMA is a symbolic feature that distinguishes […] from myofibroblasts.
Hepatic stellate cell LX-2 was laid on 35 mm cell culture plate, cultured with DMEM (high glucose)+10% FBS+1% double-antibody culture medium (Thermo Fisher), placed overnight when the cells grew to 70% convergence at 37° C. under the condition of 5% CO2 without serum, and treated with the above GLP-1R/GCGR dual target agonist polypeptide derivatives (namely, polypeptide compounds 1-25) (dissolved in PBS) for 48 hours from the next morning to extract cell protein, and then Western Blot was performed with β-actin as endogenous reference to analyze the expression levels of α-SMA and β-actin by gray-scale analysis using Image J 1.50i. PBS with the same volume as that in experimental group was added in negative control.
The above polypeptide compounds 1-25 with a concentration of 10.0 µM were added, showing that they could reduce the expression of α-SMA at the concentration of 10.0 µM; and the negative control had no effect on the expression of α-SMA (referring to Table 2).
The integrated gray scale of α-SMA/β-actin in the negative control group was considered to be 100% to analyze the in vitro inhibitory activity on hepatic fibrosis by tested polypeptides.

Substance | α-SMA expression in liver tissues (IF staining) [1] | Accumulation of collagen fibers (FG/SR staining of liver) [1] | Hepatic fibrosis and inflammation level (FG/SR and H&E staining of liver) [1] | Serum ALT [1] | Relative expression of α-SMA (α-SMA/β-actin, %) [2]
His-(D-Ser)-Gln-Gly-Thr-Phe-Thr-Ser-Asp-Tyr-Ser-Lys-Tyr-Leu-Asp-Glu-Lys(PEG2-PEG2-γGlu-CO(CH2)16CO2H)-Arg- Ala-Gln-Asp-Phe-Val-Gln-Trp-Leu-Met-Asn-Thr-Gly-Gly-Pro-Ser-Ser-Gly-Ala-Pro-Pro-Pro-Ser-NH2 (H[dS]QGTFTSDYSKYLDEK([PEG2′-PEG2′-γGlu-C18 diacid])RAQDFVQWLMNTGGPSSGAPPPS-NH2) [Compound 2] | significantly inhibited | significantly inhibited the accumulation of collagen fibers | decreased the hepatic fibrosis and inflammation level | decreased from that before administration | 34.65%
His-(D-Ser)-Gln-Gly-Thr-Phe-Thr-Ser-Asp-Tyr-Ser-Lys-Tyr-Leu-Asp-Glu-Lys-Ala-Ala-Lys(PEG2-PEG2-yGlu- CO(CH2)16CH3)-Glu-Phe-Ile-Glu-Trp-Leu-Leu-Arg-Gly-Gly- Gly-Pro-Ser-Ser-Gly-Ala-Pro-Pro-Pro-Ser-NH2 (H[dS]QGTFTSDYSKYLDEKAAK([PEG2′-PEG2′-γGlu-Stearoyl])EFIEWLLRGGGPSSGAPPPS-NH2) [Compound 11] | significantly inhibited | significantly inhibited the accumulation of collagen fibers | decreased the hepatic fibrosis and inflammation level | decreased from that before administration | 35.78%
His-(D-Ser)-Gln-Gly-Thr-Phe-Thr-Ser-Asp-Tyr-Ser-Lys-Tyr-Leu-Asp-Glu-Lys-Ala-Ala-Lys(PEG2-PEG2-γGlu- CO(CH2)14CH3)-Glu-Phe-Ile-Glu-Trp-Leu-Leu-Asn-Gly-Gly- Gly-Pro-Ser-Ser-Gly-Ala-Pro-Pro-Pro-Ser-NH2 (H[dS]QGTFTSDYSKYLDEKAAK([PEG2′-PEG2′-γGlu-Palmitoyl])EFIEWLLNGGGPSSGAPPPS-NH2) [Compound 15] | significantly inhibited | significantly inhibited the accumulation of collagen fibers | decreased the hepatic fibrosis and inflammation level | decreased from that before administration | 37.25%
His-(D-Ser)-Gln-Gly-Thr-Phe-Thr-Ser-Asp-Tyr-Ser-Lys-Tyr-Leu-Asp-Lys(PEG2-PEG2-CO(CH2)14CH3)-Arg-Arg-Ala-Gln- Asp-Phe-Val-Gln-Trp-Leu-Leu-Asn-Thr-Gly-Gly-Pro-Ser-Ser-Gly-Ala-Pro-Pro-Pro-Ser-NH2 (H[dS]QGTFTSDYSKYLDK([PEG2′-PEG2′-Palmitoyl])RRAQDFVQWLLNTGGPSSGAPPPS-NH2) [Compound 25] | significantly inhibited | significantly inhibited the accumulation of collagen fibers | decreased the hepatic fibrosis and inflammation level | decreased from that before administration | 39.17%
His-(D-Ser)-Gln-Gly-Thr-Phe-Thr-Ser-Asp-Tyr-Ser-Lys-Tyr-Leu-Asp-Lys(PEG2-PEG2-yGlu-CO(CH2)14CH3)-Arg-Arg-Ala- Gln-Asp-Phe-Val-Gln-Trp-Leu-Nle-Asn-Thr-Gly-Gly-Pro-Ser-Ser-Gly-Ala-Pro-Pro-Pro-Ser-NH2 (HXQGTFTSDYSKYLDKRRAQDFVQWLXNTGGPSSGAPPPS; D-Ser; Nle; PEG2-PEG2-γGlu-palmitoyl lipidation; C-terminal amide; (2)..(2) Xaa=D-Ser; (16)..(16) A side chain of Lys is linked to -PEG2-PEG2-AGlu-CO(CH2)14CH3; (27)..(27) Xaa=Nle) [Compound 20] | significantly inhibited | significantly inhibited the accumulation of collagen fibers | decreased the hepatic fibrosis and inflammation level | decreased from that before administration | 32.58%
His-(D-Ser)-Gln-Gly-Thr-Phe-Thr-Ser-Asp-Tyr-Ser-Lys-Tyr-Leu-Asp-Lys(PEG2-PEG2-γGlu-CO(CH2)14CH3)-Arg-Arg-Ala- Gln-Asp-Phe-Val-Gln-Trp-Leu-Leu-Asn-Thr-Gly-Gly-Pro-Ser-Ser-Gly-Ala-Pro-Pro-Pro-Ser-NH2 (H[dS]QGTFTSDYSKYLDK([PEG2′-PEG2′-γGlu-Palmitoyl])RRAQDFVQWLLNTGGPSSGAPPPS-NH2) [Compound 23] | significantly inhibited | significantly inhibited the accumulation of collagen fibers | decreased the hepatic fibrosis and inflammation level | decreased from that before administration | 36.15%
His-Aib-Gln-Gly-Thr-Phe-Thr-Ser-Asp-Lys(PEG2-PEG2-yGlu- CO(CH2)16CO2H)-Ser-Lys-Tyr-Leu-Asp-Glu-Arg-Arg-Ala- Gln-Asp-Phe-Val-Gln-Trp-Leu-Leu-Asp-Gly-Gly-Gly-Pro-Ser-Ser-Gly-Ala-Pro-Pro-Pro-Ser-NH2 (H[Aib]QGTFTSDK([PEG2′-PEG2′-γGlu-C18 diacid])SKYLDERRAQDFVQWLLDGGGPSSGAPPPS-NH2) [Compound 5] | significantly inhibited | significantly inhibited the accumulation of collagen fibers | decreased the hepatic fibrosis and inflammation level | decreased from that before administration | 37.04%
